ChEMBL document CHEMBL5316358, “Structure-Activity Relationships of Ligand Binding to Oxysterol-Binding Protein (OSBP) and OSBP-Related Protein 4” (J Med Chem, 2023)

Assays:
[1] = target: T1, Oxysterol-binding protein 2 (Homo sapiens, UniProt Q969R2); test: Displacement of [3H]-25-OHC from human ORP4 overexpressed in HEK293T cell lysate assessed as inhibition constant by competitive binding assay; assay type: subcellular
T1 sequence (Q969R2 whole entry): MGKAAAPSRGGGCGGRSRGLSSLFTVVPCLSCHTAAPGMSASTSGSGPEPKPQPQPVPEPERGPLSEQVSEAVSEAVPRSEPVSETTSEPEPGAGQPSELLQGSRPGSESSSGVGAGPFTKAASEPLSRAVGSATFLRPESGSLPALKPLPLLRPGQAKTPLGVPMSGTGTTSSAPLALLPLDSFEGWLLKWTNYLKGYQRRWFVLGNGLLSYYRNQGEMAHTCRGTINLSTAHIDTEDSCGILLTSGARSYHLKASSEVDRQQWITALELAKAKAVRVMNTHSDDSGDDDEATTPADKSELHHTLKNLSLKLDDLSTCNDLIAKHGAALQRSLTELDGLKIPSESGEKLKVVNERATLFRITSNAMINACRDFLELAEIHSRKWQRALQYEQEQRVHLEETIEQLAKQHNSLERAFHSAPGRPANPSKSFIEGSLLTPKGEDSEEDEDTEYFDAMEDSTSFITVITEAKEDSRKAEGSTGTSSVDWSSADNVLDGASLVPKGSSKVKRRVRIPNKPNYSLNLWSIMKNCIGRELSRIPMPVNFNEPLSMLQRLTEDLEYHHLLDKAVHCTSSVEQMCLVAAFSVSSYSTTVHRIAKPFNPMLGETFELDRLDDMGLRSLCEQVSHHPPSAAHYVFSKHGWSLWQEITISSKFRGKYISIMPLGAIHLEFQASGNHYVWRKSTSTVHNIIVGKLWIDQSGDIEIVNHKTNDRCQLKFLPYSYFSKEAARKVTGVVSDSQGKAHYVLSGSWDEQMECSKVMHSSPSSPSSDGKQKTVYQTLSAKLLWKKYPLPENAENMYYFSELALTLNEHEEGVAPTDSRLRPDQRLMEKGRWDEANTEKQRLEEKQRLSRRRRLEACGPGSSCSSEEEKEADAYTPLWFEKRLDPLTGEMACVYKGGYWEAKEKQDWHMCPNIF

[2] = target: T2, Oxysterol-binding protein 1 (Homo sapiens, UniProt P22059); test: Binding affinity to human OSBP
T2 sequence (P22059 whole entry): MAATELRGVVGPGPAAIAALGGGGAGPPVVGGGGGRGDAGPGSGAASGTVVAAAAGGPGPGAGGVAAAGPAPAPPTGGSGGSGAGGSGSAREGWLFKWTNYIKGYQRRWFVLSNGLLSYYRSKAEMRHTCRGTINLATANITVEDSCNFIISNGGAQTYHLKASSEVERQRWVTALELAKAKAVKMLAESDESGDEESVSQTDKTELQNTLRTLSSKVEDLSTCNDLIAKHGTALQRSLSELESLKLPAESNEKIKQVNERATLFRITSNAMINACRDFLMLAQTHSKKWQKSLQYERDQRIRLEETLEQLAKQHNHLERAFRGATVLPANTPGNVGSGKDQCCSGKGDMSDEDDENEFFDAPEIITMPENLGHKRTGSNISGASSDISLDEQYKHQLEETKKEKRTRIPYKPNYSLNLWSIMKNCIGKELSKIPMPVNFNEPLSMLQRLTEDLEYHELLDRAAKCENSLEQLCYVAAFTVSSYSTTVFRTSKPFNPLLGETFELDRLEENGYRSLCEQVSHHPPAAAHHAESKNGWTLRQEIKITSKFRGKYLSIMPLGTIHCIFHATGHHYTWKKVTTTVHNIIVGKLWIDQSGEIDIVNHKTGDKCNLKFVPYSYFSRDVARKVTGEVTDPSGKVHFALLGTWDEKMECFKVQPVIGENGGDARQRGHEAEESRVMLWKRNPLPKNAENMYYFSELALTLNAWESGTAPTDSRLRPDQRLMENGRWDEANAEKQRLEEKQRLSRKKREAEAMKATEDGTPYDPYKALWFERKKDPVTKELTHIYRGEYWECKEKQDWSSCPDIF

[3] = target: T2, Oxysterol-binding protein 1; test: Displacement of [3H]-25-OHC from human OSBP overexpressed in HEK293T cell lysate assessed as inhibition constant by competitive binding assay
[4] = target: T2, Oxysterol-binding protein 1; test: Displacement of [3H]-25-OHC from human OSBP overexpressed in HEK293T cell lysate assessed as inhibition constant; assay type: subcellular
[5] = target: T1, Oxysterol-binding protein 2; test: Displacement of [3H]-25-OHC from human ORP4 overexpressed in HEK293T cell lysate assessed as inhibition constant; assay type: subcellular

| Compound | Ki [1] | Ki [3] | further results |
| --- | --- | --- | --- |
| CC(C)CC[C@H](O)[C@@H](C)[C@H]1CC[C@H]2[C@@H]3CC=C4C[C@@H](O)CC[C@]4(C)[C@H]3CC[C@]12C | > 3000 nM | – | – |
| C[C@H](CCCC(C)(C)O)[C@H]1CC[C@H]2[C@@H]3CC=C4C[C@@H](O)CC[C@]4(C)[C@H]3CC[C@]12C | – | – | Kd [2]: 22 nM |
| CC(C)[C@@H](O)CC[C@@H](C)[C@H]1CC[C@H]2[C@@H]3CC=C4C[C@@H](O)CC[C@]4(C)[C@H]3CC[C@]12C | 400 nM | – | – |
| CC(C)CCC[C@](C)(O)[C@H]1CC[C@H]2[C@@H]3CC=C4C[C@@H](O)CC[C@]4(C)[C@H]3CC[C@@]21C | 320 nM | 130 nM | – |
| C[C@@H](CO)CCC[C@@H](C)[C@H]1CC[C@H]2[C@@H]3CC=C4C[C@@H](O)CC[C@]4(C)[C@H]3CC[C@]12C | > 1000 nM | – | – |
| CCN(CC)CCO[C@H]1CC[C@@]2(C)C(=CC[C@@H]3[C@@H]2CC[C@]2(C)C(=O)CC[C@@H]32)C1 | > 50000 nM | – | – |
| COc1ccc(C(=O)O[C@H]2[C@H](O[C@@H]3[C@@H](OC(C)=O)[C@H](O[C@H]4C[C@H]5[C@@H]6CC=C7C[C@@H](O)CC[C@]7(C)[C@H]6CC[C@]5(C)[C@@]4(O)[C@H](C)C(=O)CCC(C)C)OC[C@@H]3O)OC[C@@H](O)[C@@H]2O)cc1 | – | – | Ki [4]: 16 nM; Ki [5]: 71 nM |
| C[C@H](O)[C@H]1CC[C@H]2[C@@H]3CC=C4C[C@@H](O)CC[C@]4(C)[C@H]3CC[C@]12C | > 100000 nM | – | – |
| C[C@H](CCCC(C)(C)O)[C@H]1CC[C@H]2[C@@H]3[C@H](O)C=C4C[C@@H](O)CC[C@]4(C)[C@H]3CC[C@]12C | 92 nM | 78 nM | – |
| C[C@H](CO)CCC[C@@H](C)[C@H]1CC[C@H]2[C@@H]3CC=C4C[C@@H](O)CC[C@]4(C)[C@H]3CC[C@]12C | > 870 nM | – | – |
| CCCCCCCC[C@](C)(O)[C@H]1CC[C@H]2[C@@H]3CC=C4C[C@@H](O)CC[C@]4(C)[C@H]3CC[C@@]21C | > 20000 nM | > 10000 nM | – |
| CC(C)C[C@](C)(O)[C@H]1CC[C@H]2[C@@H]3CC=C4C[C@@H](O)CC[C@]4(C)[C@H]3CC[C@@]21C | > 30000 nM | > 20000 nM | – |
| CC[C@](C)(O)[C@H]1CC[C@H]2[C@@H]3CC=C4C[C@@H](O)CC[C@]4(C)[C@H]3CC[C@@]21C | > 30000 nM | > 30000 nM | – |
| CC1(C)C[C@H]2[C@@H]3CC=C4C[C@@H](OC5CCCCO5)CC[C@]4(C)[C@H]3CC[C@]2(C)[C@H]1O (stereo partly drawn) | – | – | Ki [4]: 22 nM; Ki [5]: 98 nM |
| C[C@]12CC[C@H](O)CC1=CC[C@@H]1[C@@H]2CC[C@]2(C)C([C@H](O)CO)=CC[C@@H]12 | > 50000 nM | > 50000 nM | – |
| CC(C)CC[C@](C)(O)[C@H]1CC[C@H]2[C@@H]3CC=C4C[C@@H](O)CC[C@]4(C)[C@H]3CC[C@@]21C | > 2000 nM | 1300 nM | – |
| CC(C)CCN[C@@H](C)[C@H]1CC[C@H]2[C@@H]3CC=C4C[C@@H](O)CC[C@]4(C)[C@H]3CC[C@]12C | > 100000 nM | > 100000 nM | – |
| CCCC[C@](C)(O)[C@H]1CC[C@H]2[C@@H]3CC=C4C[C@@H](O)CC[C@]4(C)[C@H]3CC[C@@]21C | > 30000 nM | > 10000 nM | – |
| CCCCC[C@](C)(O)[C@H]1CC[C@H]2[C@@H]3CC=C4C[C@@H](O)CC[C@]4(C)[C@H]3CC[C@@]21C | 780 nM | 600 nM | – |
| C[C@@H]1[C@@]2(CC[C@](C)(O)CO2)O[C@H]2C=C3[C@@H]4[C@@H](O)C[C@H]5Cc6nc7c(nc6C[C@]5(C)[C@H]4C[C@@H](O)[C@]3(C)[C@]21O)C[C@@H]1CC[C@H]2[C@H]3C[C@@H]4O[C@@]5(CCC(C)(C)O5)[C@@H](C)[C@@H]4[C@@]3(C)[C@H](O)C[C@@H]2[C@@]1(C)C7 | – | – | Ki [4]: 28 nM; Ki [5]: > 360 nM |
| C[C@H](CCCC(C)(C)O)[C@H]1CC[C@H]2[C@@H]3CCC4C[C@@H](O)CC[C@]4(C)[C@H]3CC[C@]12C (stereo partly drawn) | 51 nM | – | – |
| CC(C)C[C@@](C)(O)[C@H]1CC[C@H]2[C@@H]3CC=C4C[C@@H](O)CC[C@]4(C)[C@H]3CC[C@@]21C | > 50000 nM | > 50000 nM | – |
| CCCCCCCC[C@@](C)(O)[C@H]1CC[C@H]2[C@@H]3CC=C4C[C@@H](O)CC[C@]4(C)[C@H]3CC[C@@]21C | > 100000 nM | > 100000 nM | – |
| CC(C)CC[C@@H](O)[C@](C)(O)[C@H]1CC[C@H]2[C@@H]3CC=C4C[C@@H](O)CC[C@]4(C)[C@H]3CC[C@]12C | > 15000 nM | > 30000 nM | – |
| CC(C)CC[C@@H](O)[C@@H](C)[C@H]1CC[C@H]2[C@@H]3CC=C4C[C@@H](O)CC[C@]4(C)[C@H]3CC[C@]12C [22(R)-HYDROXYCHOLESTEROL] | > 50000 nM | – | – |
| C[C@@H]1[C@]2(O[C@H]3C=C4[C@@H]5CC[C@H]6Cc7nc8c(nc7C[C@]6(C)[C@H]5C[C@@H](O)[C@]4(C)[C@]31O)C[C@@H]1CC[C@H]3C4=CC[C@@H]5[C@H](C)[C@@]6(OC[C@]45C(=O)C[C@@H]3[C@@]1(C)C8)OC(C)(C)C[C@H]6O)O[C@](C)(CO)C[C@H]2O [CEPHALOSTATIN 1] | – | – | Ki ([4]; hek293t): 39 nM; Ki ([5]; hek293t): 78 nM |
| C[C@@H]1CC[C@@]2(OC1)O[C@H]1C[C@H]3[C@@H]4CC=C5C[C@@H](O)CC[C@]5(C)[C@H]4CC[C@]3(C)[C@H]1[C@@H]2C [DISOGENIN] | – | > 100000 nM | – |
| CC(C)(O)[C@H]1O[C@H]2CC[C@@]3(C)[C@@](O)(CC[C@H]4Cc5c([nH]c6ccccc56)[C@@]43C)C2=CC1=O [PAXILLINE] | > 30000 nM | > 50000 nM | – |
| CC(C)=CCC/C(C)=C/Cc1c(O)cc(/C=C/c2cc(O)c3c(c2)C[C@@H]2C(C)(C)[C@H](O)[C@H](O)C[C@@]2(C)O3)cc1O [SCHWEINFURTHIN A] | – | – | Ki ([4]; hek293t): 68 nM; Ki ([5]; hek293t): 2600 nM |
